Experimental data reported in ChEMBL document CHEMBL1157539, “Thousands of chemical starting points for antimalarial lead identification” (Nature, 2010).

The compounds below were run on Plasmodium falciparum (assay: GSK_TCMDC: Inhibition of Plasmodium falciparum 3D7 in whole erythrocytes, using parasite LDH activity as an index of growth.). Conditions: Plasmodium falciparum, 3D7.
Format: functional, organism-based

Point of comparison: `CN1CCC(NCc2ccc(-c3cccc(S(=O)(=O)NCC4CCCO4)c3)cc2)CC1` (stereo unspecified), XC50 939 nM. Against it:
- Cc1ccc2c(N/N=C/c3cccc([N+](=O)[O-])c3)cc(C)nc2c1 — 3.5-fold lower, 272 nM
- CCN(CC)CCN(Cc1ccc(-c2ccc(C(F)(F)F)cc2)cc1)C(=O)Cn1cc(Cc2cnn(C)c2)c(=O)nc1/C=C/c1cccc(F)c1F — within 1.5-fold, 957 nM
- O=C(/C=C/c1ccc(I)cc1)NCCCCCN1CCC(c2c[nH]c3ccccc23)CC1 — within 1.5-fold, 836 nM
- CCN(CC(C)O)C(=O)c1ccc(-c2ccc(-c3nc4cccc(C)c4[nH]3)cc2)cc1 (stereo unspecified) — within 1.5-fold, 840 nM
- CC(C)(C)c1ccc2[nH]c(-c3ccc(C(=O)NCc4cccc(C(F)(F)F)c4)cc3)nc2c1 — within 1.5-fold, 733 nM
- CC(CN1CCN(C)CC1)C(=O)Nc1cccc(-c2ccc(-c3nc4cc(C(F)(F)F)ccc4[nH]3)cc2)c1 (stereo unspecified) — 1.5-fold lower, 607 nM
- CC(C)c1sc(N2CCN(C)CC2)nc1C(=O)NCCc1ccc(Br)cc1 — within 1.5-fold, 1130 nM
- CCOc1ccc(C=CC(=O)Nc2ccc3nc(N4CCN(C)CC4)cc(C)c3c2)cc1OC — 2.4-fold lower, 398 nM
- COc1ccc(NC(=O)CCNc2cc(C)nc(Nc3ccccc3)n2)cc1 — within 1.5-fold, 1100 nM
- Cc1cccc2nc(-c3cccc(-c4ccc(NC(=O)c5ccncc5)cc4)c3)[nH]c12 — 1.9-fold lower, 497 nM
- FC(F)(F)c1ccc2[nH]c(-c3ccc(-c4ccc(CNCC5CCCO5)cc4)cc3)nc2c1 (stereo unspecified) — 2.3-fold lower, 407 nM
- CN1CCc2cc(NS(=O)(=O)c3ccc(-c4ccc(Cl)cc4)cc3)c(OCCCN3CCCCC3)cc2CC1 — within 1.5-fold, 961 nM
- CCn1c(Sc2ccc(C#N)c([N+](=O)[O-])c2)nnc1-c1cccc(Cl)c1 — 2.1-fold lower, 446 nM
- COc1ccc(N2CCc3c(-c4cccc5cnccc45)cc(C)nc32)c(C)c1 — within 1.5-fold, 655 nM
- O=C(Nc1ccc(I)cc1)N1CCc2sccc2C1CN1CCCCC1 (stereo unspecified) — within 1.5-fold, 1200 nM
- NCc1cccc(-c2cccc(CNC3CCN(Cc4ccccc4)CC3)c2)c1 — within 1.5-fold, 719 nM
- COc1ccc2c(-c3ccccc3)noc2c1 — 3.9-fold lower, 241 nM
- CC(=O)Nc1ccc(C(=O)Nc2ccc(-c3csc(-c4nc5ccccc5[nH]4)c3)cc2)cn1 — 1.6-fold lower, 591 nM
- O=C(NC1CCN(CCc2c[nH]c3ccc(F)cc23)CC1)c1ncc(-c2ccccc2)[nH]1 — within 1.5-fold, 868 nM
- CS(=O)(=O)Cc1ccc(Nc2nccc(NC3CCN(c4nccc(C(F)(F)F)n4)CC3)n2)cc1 — within 1.5-fold, 896 nM
- Cc1cnc(C(=O)Nc2ccc(-c3cccc(-c4nc5ccccc5[nH]4)c3)cc2)cn1 — within 1.5-fold, 833 nM
- Cc1cc(C2CCN(CCCCNC(=O)c3ccc(NC(=O)c4ccc(Cl)cc4)cc3)CC2)c(C)cc1OCc1ccccn1 — within 1.5-fold, 801 nM
- O=[N+]([O-])c1cccc(CNCC2CCN(Cc3ccc(-c4ccccc4)cc3)CC2)c1 — 3.8-fold lower, 248 nM
- CCn1c(CN2CCC(C)CC2)nc2cc(NC(=O)c3cccs3)ccc21 — 1.7-fold lower, 565 nM
- O=c1cc(-c2ccc3ccccc3c2)[nH]c2ccccc12 — within 1.5-fold, 1160 nM
- Clc1ccc(OCc2ccccc2)c(Cc2ccc(-c3nc4cnccc4[nH]3)o2)c1 — within 1.5-fold, 754 nM
- OC(CNC1CCCCC1)Cn1c2ccc(Br)cc2c2cc(Br)ccc21 (stereo unspecified) — 3.1-fold lower, 303 nM
- O=C(/C=C/c1ccc(Cl)c(Cl)c1)NCCCCCN1CCC(NC(=O)Nc2ccc(C(F)(F)F)cc2)C1 (stereo unspecified) — 1.8-fold lower, 513 nM
- CC(=O)Nc1cccc(C(=O)Nc2ccc(-c3cccc(-c4nc5cccc(C)c5[nH]4)c3)cc2)c1 — within 1.5-fold, 789 nM
- Cc1ccc(NC(=O)c2cccc(CN3CCCN(Cc4cccc(O)c4)CC3)c2)cc1 — within 1.5-fold, 1310 nM
- CC(C)Cc1cnc2nc(N)nc(N)c2c1 — 1.9-fold lower, 491 nM
- COc1cccc(C2CCCN(CCCCNC(=O)c3ccc(NC(=O)c4ccc(Cl)cc4)cc3)C2)c1 (stereo unspecified) — within 1.5-fold, 864 nM
- COc1ccc(OC)c(C(O)C(C)NCc2cc(Cl)ccc2O)c1 (stereo unspecified) — 2.5-fold lower, 382 nM
- CN1CCC(C(=O)Nc2cccc(-c3ccc(-c4nc5ccccc5[nH]4)cc3)c2)CC1 — within 1.5-fold, 1090 nM
- Cc1c(-c2cccc(CNCCc3ccc(Cl)cc3)c2)cnc(N)c1C — within 1.5-fold, 1040 nM
- c1ccc2c(CNCCCN3CCN(CCCNCc4c5ccccc5cc5ccccc45)CC3)c3ccccc3cc2c1 — 5.2-fold lower, 182 nM
- O=C(NC1CCN(c2ccnc(Nc3ccc(F)cc3)n2)C1)c1cc2ccccc2s1 (stereo unspecified) — within 1.5-fold, 716 nM
- CC(C)[C@H](NC(=O)c1c(CN2CCC(N3CCCCC3)CC2)c(-c2ccccc2)nc2cc(O)ccc12)c1ccccc1 — within 1.5-fold, 741 nM
- CC(C)C[C@H](NC(=O)c1ccc(OCCN2CCOCC2)cc1)C(=O)N[C@H](/C=N/N1CCNC1=O)CCc1ccccc1 — 2.6-fold lower, 365 nM
- Nc1cc2c(C3CCN(CC4CCN(C(=O)/C=C/c5ccc(Cl)c(Cl)c5)CC4)CC3)c[nH]c2cn1 — within 1.5-fold, 975 nM
- Cc1cc(NC(=O)Nc2ccc3ncccc3c2)c2ccccc2n1 — within 1.5-fold, 956 nM
- NC1=NC(c2ccccc2)(c2ccccc2)C(=O)N1CCCCc1ccccn1 — within 1.5-fold, 1260 nM
- CN(C)CCCSc1ccccc1NC(=O)C=Cc1ccccc1 — within 1.5-fold, 964 nM
- CC[C@H]1CN2CC[C@@H]1C[C@H]2[C@H](O)c1cc(N2CCCC(C)(C)C2)nc2ccc(OC)cc12 — 2.8-fold lower, 337 nM
- CS(=O)(=O)Nc1cccc(-c2cnc3[nH]cc(-c4ccc(C(=O)O)c(F)c4)c3c2)c1 — within 1.5-fold, 834 nM
- COc1cc(Nc2nccn3c(-c4ccsc4)cnc23)cc(OC)c1OC — within 1.5-fold, 890 nM
- O=C(NCc1cccc(F)c1)Nc1cccc(-c2ccc(-c3nc4cc(C(F)(F)F)ccc4[nH]3)cc2)c1 — within 1.5-fold, 766 nM
- CC(C)(C)c1ccc(CN2CCC(NC(=O)c3cc(-c4cccc(C(F)(F)F)c4)cs3)C2)cc1 (stereo unspecified) — within 1.5-fold, 805 nM
- CC(Nc1ncc(-c2ccsc2)c(-c2nccs2)n1)c1ccc2c(c1)OCCO2 (stereo unspecified) — 5.4-fold lower, 175 nM
- CSc1ccc(CN2CCC(NC(=O)c3ccc(-c4ccc(N(C)C)cc4)s3)CC2)cc1 — 1.6-fold higher, 1500 nM
- O=C(NOCCCCOc1ccc(Cl)c(Cl)c1)c1ccccc1 — 5.1-fold lower, 183 nM
- CCc1ccc(CN2CCC(CNC(=O)c3cc(-c4cccc(F)c4)cs3)C2)cc1 (stereo unspecified) — within 1.5-fold, 1360 nM
- CCCCCCCN1CC[C@@H](CCCc2ccnc3ccc(OCCN4CCNCC4)cc23)[C@@H](CC)C1 — within 1.5-fold, 771 nM
- Cc1cccc2nc(-c3ccc(-c4ccc(CNCCCNS(C)(=O)=O)cc4)s3)[nH]c12 — within 1.5-fold, 999 nM
- Oc1ccc2[nH]cc(C3=CCN(CCc4ccccc4)CC3)c2c1 — 3-fold lower, 313 nM
- CCCCCCC(CC)c1cc(O)c2c(c1)OC(C)(C)c1ccncc1-2 (stereo unspecified) — within 1.5-fold, 808 nM
- CN(CCN1CCC(c2c[nH]c3ccccc23)CC1)c1ccc(-c2nc3cc(Cl)c(Cl)cc3[nH]2)cc1 — 7.9-fold lower, 119 nM
- O=C(NC1CCN(Cc2ccccc2)CC1)c1ccc(-c2nc3cc(Cl)c(F)cc3[nH]2)s1 — 3.1-fold lower, 306 nM
- COc1ccc2c(c1)ncn2-c1cc(OCc2ccncc2Br)c(C(N)=O)s1 — 1.5-fold lower, 609 nM
- O=C(N[C@H]1CCN(Cc2ccc(OCCN3CCCC3)c3ccccc23)C1)c1ccc(Cl)c(Cl)c1 — within 1.5-fold, 746 nM
- CCOC(=O)c1ccc(NC(=O)N(Cc2ccc(-c3ccc(CN4CCNCC4)cc3)cc2)Cc2cccnc2)cc1 — within 1.5-fold, 926 nM
- FC(F)(F)c1ccc2[nH]c(-c3cccc(-c4ccc(CNCCc5ccncc5)cc4)c3)nc2c1 — 9.5-fold lower, 98.9 nM
- CS(=O)(=O)NCCCNCc1ccc(-c2cccc(-c3nc4cc(F)ccc4[nH]3)c2)cc1 — within 1.5-fold, 804 nM
- C/C=C1/CN2CC[C@H]1C[C@H]2[C@H](O)c1ccnc2ccc(O)cc12 — 1.9-fold lower, 491 nM
- COc1ccc2nccc(N3CCC(CCNCc4ccc5c(n4)NC(=O)CS5)CC3)c2n1 — 4.1-fold lower, 227 nM
- Cc1nc(-c2nc(N3CCOCC3)ncc2-c2ccsc2)sc1C — 3-fold lower, 315 nM
- CC1CN(Cc2ccc(-c3ccc(-c4nc5cc(F)ccc5[nH]4)s3)cc2)CC(C)O1 (stereo unspecified) — within 1.5-fold, 876 nM
- COc1ccc2nc(C)cc(Nc3ccc(N4CCN(C)CC4)cc3)c2c1 — within 1.5-fold, 788 nM
- COc1ccc2nccc([C@@H](O)CN3CCC(NC(=O)Cc4ccc(Br)c5ccccc45)CC3)c2c1 — within 1.5-fold, 820 nM
- O=C(Cc1c(-c2ccccc2)[nH]c2ccccc12)NC1CCC(CN2CCC(c3c[nH]c4ccccc34)CC2)CC1 (stereo unspecified) — 2-fold lower, 476 nM
- CCNc1cc(C(=O)N[C@@H](Cc2ccccc2)[C@H](O)CN[C@@H](C)c2cccc(OC)c2)cc(N2CCCC2=O)c1 — within 1.5-fold, 769 nM
- O=C(Nc1ccc(C(F)(F)F)cc1)c1ccc(S(=O)(=O)NCC2CCCN(CC3CCCCC3)C2)cc1 (stereo unspecified) — 6.2-fold lower, 152 nM
- Cc1cc(=O)c(-c2ccc(Oc3cccc(OC(F)(F)F)c3)cc2)c(C)[nH]1 — 4.6-fold lower, 202 nM
- CC(C)Oc1cccc(-c2ccc(C(=O)NCC3CCCN(Cc4cccc(C(F)(F)F)c4)C3)s2)c1 (stereo unspecified) — within 1.5-fold, 1080 nM
- O=C(Cc1cccnc1)N(Cc1ccc(-c2ccc(CNCc3cccnc3)cn2)cc1)C1CCN(Cc2ccccc2)CC1 — within 1.5-fold, 803 nM
- c1cc(Nc2nccc(-c3cnn4ncccc34)n2)cc(-c2cnco2)c1 — within 1.5-fold, 692 nM
- COc1ccc(CN2CCCN(Cc3ccc(C(=O)Nc4ccc(Cl)cc4)cc3)CC2)cc1 — within 1.5-fold, 919 nM
- CCCCn1c(SC(C)C)nc2c(c1=O)C1(CCCCC1)Cc1ccccc1-2 — within 1.5-fold, 666 nM
- Cc1cc(C(=O)N[C@H]2CCN(Cc3ccc(OCCCN(C)C)cc3)C2)ccc1Br — within 1.5-fold, 898 nM
- O=c1cc(NCCCNCc2cc(Br)ccc2F)[nH]c2ccccc12 — within 1.5-fold, 854 nM
- Cc1[nH]c(C)c(-c2ccc(-c3ccc(Cl)cc3)nc2)c(=O)c1Cl — 8.9-fold lower, 106 nM
- CC(C)C[C@H](NC(=O)c1cc2ccccc2s1)C(=O)N[C@H]1CCN(Cc2ccc(I)c(OCCN3CCCC3)c2)C1 — within 1.5-fold, 1350 nM
- COc1cc(N)cc2sc(N)nc12 — 3.7-fold lower, 251 nM
- Nc1nc(N)c2c(ccc3ccccc32)n1 — within 1.5-fold, 749 nM
- COc1ccc2ncc(F)c(CCN3CCC[C@H](CNCc4ccc5c(n4)NC(=O)CS5)C3)c2n1 — within 1.5-fold, 970 nM
- CS(=O)(=O)CCNCc1nc(-c2ccc3ncnc(Nc4ccc(OCc5ccccc5)c(Cl)c4)c3c2)cs1 — within 1.5-fold, 802 nM
- COc1ccc(C2CC(=O)C3=C(C2)NC(C)=C(C(=O)OC2CCCC2)C3c2cccc(O)c2)cc1 (stereo unspecified) — within 1.5-fold, 1010 nM
- O=C(NC1CCCCN(Cc2ccc3c(c2)OCCO3)C1)c1cc(-c2ccccc2F)cs1 (stereo unspecified) — within 1.5-fold, 1050 nM
- Cc1ccc(NC(=O)c2ccc3ncccc3c2)cc1OC1CCN(C(C)C)C1 (stereo unspecified) — within 1.5-fold, 990 nM
- N#Cc1cccc(C(=O)N2CCOC(CCN3CCC(c4ccccc4)CC3)(c3ccc(Cl)c(Cl)c3)C2)c1 (stereo unspecified) — within 1.5-fold, 1040 nM
- Oc1cc(-c2nc(-c3ccccc3)[nH]c2-c2ccncc2)ccc1Cl — within 1.5-fold, 814 nM
- O=C(Nc1ccc(-c2cccc(-c3nc4ccccc4[nH]3)c2)cc1)c1cnn2cccnc12 — 1.6-fold lower, 597 nM
- CCOC(=O)N(C)/N=C/[C@H](CCc1ccccc1)NC(=O)[C@H](CC(C)C)NC(=O)c1cc2cccc(OC)c2o1 — 1.7-fold lower, 556 nM
- COC(=O)c1cccc(NC(=O)NC2CCN(c3ccnc(Nc4ccc(OC)cc4)n3)C2)c1 (stereo unspecified) — 2-fold lower, 472 nM
- CCCCN1CC[C@@H](CCC(O)c2ccnc3ccc(OCCC(C)C)cc23)[C@@H](CC)C1 (stereo partly specified) — within 1.5-fold, 989 nM
